ChEMBL document CHEMBL5465560, “Selectivity Literature for EUbOPEN Chemogenomic Library” (2024)

How the values were obtained:
[1] = molecular target: Fibroblast growth factor receptor 2 (Homo sapiens) (UniProt P21802); experiment: Selectivity interaction (SelectScreen profiling (Invitrogen)) EUB0000607a FGFR2; details: at 2 µM
[2] = molecular target: T1, SNF-related serine/threonine-protein kinase (Homo sapiens) (UniProt Q9NRH2); experiment: Selectivity interaction (ActivX KiNativ screen (kinase selectivity in THP-1 cell lysates)) EUB0000639a SNRK; assay type: subcellular; details: lysate, at 0.04 µM
T1 sequence (whole entry): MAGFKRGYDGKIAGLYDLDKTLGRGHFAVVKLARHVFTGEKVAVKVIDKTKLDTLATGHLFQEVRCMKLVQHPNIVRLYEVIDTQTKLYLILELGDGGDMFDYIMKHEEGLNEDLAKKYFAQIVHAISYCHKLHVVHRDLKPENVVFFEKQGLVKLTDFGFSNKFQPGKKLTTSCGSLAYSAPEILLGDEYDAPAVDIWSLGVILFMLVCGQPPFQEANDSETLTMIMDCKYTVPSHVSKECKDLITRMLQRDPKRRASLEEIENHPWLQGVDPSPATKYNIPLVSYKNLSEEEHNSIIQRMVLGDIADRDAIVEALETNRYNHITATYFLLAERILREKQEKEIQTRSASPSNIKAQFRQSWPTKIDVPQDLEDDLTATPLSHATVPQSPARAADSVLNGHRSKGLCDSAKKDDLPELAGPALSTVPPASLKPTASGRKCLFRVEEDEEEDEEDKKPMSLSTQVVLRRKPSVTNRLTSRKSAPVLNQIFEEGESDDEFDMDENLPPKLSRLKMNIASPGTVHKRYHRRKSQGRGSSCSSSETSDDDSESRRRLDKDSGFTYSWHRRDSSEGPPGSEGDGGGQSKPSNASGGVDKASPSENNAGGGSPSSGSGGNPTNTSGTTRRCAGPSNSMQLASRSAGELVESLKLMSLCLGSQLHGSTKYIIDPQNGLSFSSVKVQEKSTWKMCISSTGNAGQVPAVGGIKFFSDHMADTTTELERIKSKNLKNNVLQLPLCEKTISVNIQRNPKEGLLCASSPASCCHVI

[3] = molecular target: Dual specificity protein kinase CLK1 (Homo sapiens, UniProt P49759); experiment: Selectivity interaction (Kinase panel (DSF assay)) EUB0001489b CLK1
[4] = molecular target: T2, Serine/threonine-protein kinase 3 (Homo sapiens) (UniProt Q13188); experiment: Selectivity interaction (Kinase panel (DSF assay)) EUB0001559a STK3
T2 sequence (whole entry): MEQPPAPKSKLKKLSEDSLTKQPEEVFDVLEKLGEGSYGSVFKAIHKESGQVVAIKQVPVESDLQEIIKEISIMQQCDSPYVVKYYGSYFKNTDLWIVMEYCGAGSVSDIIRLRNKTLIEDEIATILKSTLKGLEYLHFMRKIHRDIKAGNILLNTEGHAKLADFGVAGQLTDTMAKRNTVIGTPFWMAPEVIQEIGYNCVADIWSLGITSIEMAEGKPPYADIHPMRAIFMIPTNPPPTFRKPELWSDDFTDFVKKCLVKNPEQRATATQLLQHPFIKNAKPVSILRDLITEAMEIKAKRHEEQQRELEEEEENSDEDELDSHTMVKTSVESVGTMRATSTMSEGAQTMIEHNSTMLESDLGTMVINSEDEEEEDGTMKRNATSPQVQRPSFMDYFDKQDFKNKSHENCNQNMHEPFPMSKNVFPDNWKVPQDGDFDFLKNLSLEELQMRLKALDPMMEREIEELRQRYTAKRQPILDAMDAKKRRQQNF

[5] = molecular target: Casein kinase I isoform alpha (Homo sapiens, UniProt P48729); experiment: Selectivity interaction (Kinase screening (Upstate/Millipore)) EUB0000604a CSNK1A1
[6] = molecular target: Calcium/calmodulin-dependent protein kinase type 1D (Homo sapiens) (UniProt Q8IU85); experiment: Selectivity interaction (Kinase panel (DSF assay)) EUB0001558a CAMK1D
[7] = molecular target: Mitogen-activated protein kinase kinase kinase 10 (Homo sapiens) (UniProt Q02779); experiment: Selectivity interaction (KinomeScan (DiscoverX)) EUB0000655a MAP3K10; details: at 10 µM
[8] = molecular target: [Pyruvate dehydrogenase (acetyl-transferring)] kinase isozyme 1, mitochondrial (Homo sapiens, UniProt Q15118)
[9] = molecular target: T3, Histone-arginine methyltransferase CARM1 (Homo sapiens) (UniProt Q86X55); details: KMS-20, at 3 µM
T3 sequence (whole entry): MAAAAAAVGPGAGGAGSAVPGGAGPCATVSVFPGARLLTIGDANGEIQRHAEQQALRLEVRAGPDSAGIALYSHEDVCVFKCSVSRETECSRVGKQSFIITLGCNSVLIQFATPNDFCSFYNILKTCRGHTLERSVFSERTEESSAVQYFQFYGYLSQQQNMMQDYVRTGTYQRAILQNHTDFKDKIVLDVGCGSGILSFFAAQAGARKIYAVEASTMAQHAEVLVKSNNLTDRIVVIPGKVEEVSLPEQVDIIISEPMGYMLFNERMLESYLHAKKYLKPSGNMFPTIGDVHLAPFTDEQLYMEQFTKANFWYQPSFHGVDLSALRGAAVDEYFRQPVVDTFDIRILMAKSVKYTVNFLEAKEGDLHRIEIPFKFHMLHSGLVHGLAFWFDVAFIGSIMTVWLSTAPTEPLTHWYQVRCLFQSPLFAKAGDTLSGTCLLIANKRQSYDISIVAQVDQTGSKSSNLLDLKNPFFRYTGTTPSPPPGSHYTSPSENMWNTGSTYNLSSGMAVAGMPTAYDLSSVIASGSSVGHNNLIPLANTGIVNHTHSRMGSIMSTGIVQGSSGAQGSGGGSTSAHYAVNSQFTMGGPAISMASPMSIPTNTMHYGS

Chain of Casein kinase I isoform alpha (P48729 2-337 limits assumed): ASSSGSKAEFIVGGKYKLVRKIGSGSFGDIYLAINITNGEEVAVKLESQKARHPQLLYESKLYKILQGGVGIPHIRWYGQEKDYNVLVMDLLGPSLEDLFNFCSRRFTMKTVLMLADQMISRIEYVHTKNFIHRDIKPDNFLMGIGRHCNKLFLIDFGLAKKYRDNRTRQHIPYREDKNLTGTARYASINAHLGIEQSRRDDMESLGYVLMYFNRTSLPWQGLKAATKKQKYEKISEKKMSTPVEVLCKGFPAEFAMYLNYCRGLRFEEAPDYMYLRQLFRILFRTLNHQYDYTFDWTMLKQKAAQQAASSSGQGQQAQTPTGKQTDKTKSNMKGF
Chain of Dual specificity protein kinase CLK1 (P49759 whole entry, looked up): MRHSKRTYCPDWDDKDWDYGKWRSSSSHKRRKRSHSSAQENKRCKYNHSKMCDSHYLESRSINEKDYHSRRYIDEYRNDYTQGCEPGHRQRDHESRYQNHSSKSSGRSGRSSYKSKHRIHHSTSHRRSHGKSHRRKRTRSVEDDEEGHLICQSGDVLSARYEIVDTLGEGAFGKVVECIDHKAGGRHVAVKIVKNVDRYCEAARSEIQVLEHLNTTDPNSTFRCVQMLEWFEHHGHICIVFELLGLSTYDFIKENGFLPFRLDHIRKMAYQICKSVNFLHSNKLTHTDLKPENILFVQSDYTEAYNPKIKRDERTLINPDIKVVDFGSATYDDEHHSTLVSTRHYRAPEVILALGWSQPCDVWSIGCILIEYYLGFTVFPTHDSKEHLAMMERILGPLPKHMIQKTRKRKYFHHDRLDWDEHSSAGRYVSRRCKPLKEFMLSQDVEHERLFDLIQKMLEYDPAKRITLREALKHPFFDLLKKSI
Chain of Calcium/calmodulin-dependent protein kinase type 1D (Homo sapiens) (Q8IU85 whole entry, looked up): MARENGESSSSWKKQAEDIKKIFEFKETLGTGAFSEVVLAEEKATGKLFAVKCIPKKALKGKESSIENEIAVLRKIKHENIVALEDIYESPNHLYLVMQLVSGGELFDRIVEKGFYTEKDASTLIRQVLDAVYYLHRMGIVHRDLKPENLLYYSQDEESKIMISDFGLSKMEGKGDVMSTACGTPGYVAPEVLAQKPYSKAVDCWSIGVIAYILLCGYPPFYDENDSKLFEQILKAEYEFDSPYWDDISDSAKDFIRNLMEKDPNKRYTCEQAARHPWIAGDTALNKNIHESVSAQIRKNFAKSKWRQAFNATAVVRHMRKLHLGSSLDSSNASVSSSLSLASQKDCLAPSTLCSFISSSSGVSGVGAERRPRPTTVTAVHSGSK
Chain of Fibroblast growth factor receptor 2 (Homo sapiens) (P21802 22-821 limits assumed): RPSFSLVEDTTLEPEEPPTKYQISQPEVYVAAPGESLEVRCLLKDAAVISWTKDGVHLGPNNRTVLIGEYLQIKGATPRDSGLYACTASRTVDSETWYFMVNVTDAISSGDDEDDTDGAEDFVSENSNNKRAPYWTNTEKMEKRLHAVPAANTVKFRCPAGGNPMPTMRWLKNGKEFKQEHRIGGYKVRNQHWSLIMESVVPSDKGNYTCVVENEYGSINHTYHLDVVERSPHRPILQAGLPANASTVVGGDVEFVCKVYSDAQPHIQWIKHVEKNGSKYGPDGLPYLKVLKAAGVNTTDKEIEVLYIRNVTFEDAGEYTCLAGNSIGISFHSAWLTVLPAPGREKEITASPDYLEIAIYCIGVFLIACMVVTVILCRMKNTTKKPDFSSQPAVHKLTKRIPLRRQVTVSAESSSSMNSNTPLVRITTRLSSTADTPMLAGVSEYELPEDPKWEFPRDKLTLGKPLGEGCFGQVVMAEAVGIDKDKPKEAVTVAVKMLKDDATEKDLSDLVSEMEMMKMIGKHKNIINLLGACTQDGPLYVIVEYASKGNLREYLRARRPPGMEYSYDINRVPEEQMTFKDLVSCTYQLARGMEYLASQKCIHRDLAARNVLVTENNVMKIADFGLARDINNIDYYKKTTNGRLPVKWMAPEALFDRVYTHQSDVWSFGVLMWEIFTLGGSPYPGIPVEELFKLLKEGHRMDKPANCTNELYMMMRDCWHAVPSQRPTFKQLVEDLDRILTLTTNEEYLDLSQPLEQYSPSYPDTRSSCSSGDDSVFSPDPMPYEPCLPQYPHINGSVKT
Chain of Mitogen-activated protein kinase kinase kinase 10 (Homo sapiens) (Q02779 whole entry, looked up): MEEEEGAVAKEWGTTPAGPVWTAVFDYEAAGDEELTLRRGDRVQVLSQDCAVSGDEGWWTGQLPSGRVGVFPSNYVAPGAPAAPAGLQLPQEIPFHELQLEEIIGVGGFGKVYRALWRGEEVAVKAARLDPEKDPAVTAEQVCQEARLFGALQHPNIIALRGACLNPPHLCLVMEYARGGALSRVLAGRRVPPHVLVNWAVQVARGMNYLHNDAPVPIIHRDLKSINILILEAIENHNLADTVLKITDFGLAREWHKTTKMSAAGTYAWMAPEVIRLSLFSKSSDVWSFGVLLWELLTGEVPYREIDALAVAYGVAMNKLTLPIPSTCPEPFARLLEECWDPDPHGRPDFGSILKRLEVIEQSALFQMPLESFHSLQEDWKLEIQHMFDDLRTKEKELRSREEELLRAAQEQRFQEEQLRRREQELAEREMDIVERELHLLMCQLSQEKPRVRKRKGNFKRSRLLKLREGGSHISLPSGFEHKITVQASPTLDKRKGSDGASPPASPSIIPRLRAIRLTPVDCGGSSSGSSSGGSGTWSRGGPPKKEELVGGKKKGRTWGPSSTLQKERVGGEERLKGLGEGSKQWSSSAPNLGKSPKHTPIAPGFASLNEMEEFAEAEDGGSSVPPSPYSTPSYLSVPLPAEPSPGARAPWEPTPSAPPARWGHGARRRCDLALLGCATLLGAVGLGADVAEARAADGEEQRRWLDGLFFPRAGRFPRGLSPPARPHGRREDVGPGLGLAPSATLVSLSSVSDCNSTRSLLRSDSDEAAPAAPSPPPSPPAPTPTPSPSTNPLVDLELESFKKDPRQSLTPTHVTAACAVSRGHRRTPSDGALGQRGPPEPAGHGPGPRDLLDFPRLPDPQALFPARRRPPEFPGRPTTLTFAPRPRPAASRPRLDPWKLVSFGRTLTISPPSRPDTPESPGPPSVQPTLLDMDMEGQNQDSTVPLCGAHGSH
Chain of [Pyruvate dehydrogenase (acetyl-transferring)] kinase isozyme 1, mitochondrial (Q15118 whole entry): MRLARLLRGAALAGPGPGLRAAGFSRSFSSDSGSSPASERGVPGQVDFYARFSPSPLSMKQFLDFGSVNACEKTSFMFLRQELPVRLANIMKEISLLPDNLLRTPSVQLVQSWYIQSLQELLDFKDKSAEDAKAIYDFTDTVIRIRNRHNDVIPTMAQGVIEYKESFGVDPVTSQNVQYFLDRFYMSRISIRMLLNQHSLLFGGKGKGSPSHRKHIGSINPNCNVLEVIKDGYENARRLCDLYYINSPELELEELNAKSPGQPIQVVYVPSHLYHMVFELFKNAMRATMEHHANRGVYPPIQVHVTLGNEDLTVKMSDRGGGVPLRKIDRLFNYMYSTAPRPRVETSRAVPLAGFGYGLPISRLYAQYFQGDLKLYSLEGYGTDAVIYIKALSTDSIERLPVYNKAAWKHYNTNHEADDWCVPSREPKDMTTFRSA

CNC(=O)Nc1ccc(-c2nc(N3CC4CCC(C3)O4)c3cnn(C4CCC5(CC4)OCCO5)c3n2)cc1
% of inhibition [1]: 4%

CC[C@@H]1[C@H](F)C(=O)N[C@@H]1COc1nccc2cc(C(N)=O)c(OC)cc12 [ZIMLOVISERTIB]
% of inhibition [2]: 9.5%

CN1CCN(C(=O)c2ccc3cc2OCCOCCNc2ccn4ncc-3c4n2)CC1
dTM [3]: 2.9 K

CN(C(=O)c1cnn2cccnc12)c1cc2c(cc1N1CCOCC1)C(=O)N(C[C@@H](F)C(C)(C)O)C2
dTM [4]: 1.5 K

Cc1cnc(Nc2ccc(F)cc2Cl)nc1-c1c[nH]c(C(=O)N[C@H](CO)c2cccc(Cl)c2)c1
% of inhibition [5]: 25%

CC(C)(O)[C@H](F)CN1Cc2cc(NC(=O)c3cnn4cccnc34)c(N3CCOCC3)cc2C1=O
dTM [6]: -0.1 K

CN(C)CCOc1ccc(-c2nc(-c3ccncc3)c(-c3ccc4c(c3)CC/C4=N\O)[nH]2)cc1
% of control [7]: 92%

CCc1cccc(CC)c1NC(=O)c1nn(C)c2c1CCc1cnc(Nc3ccc(C(=O)NC4CCN(C)CC4)cc3OC(F)(F)F)nc1-2
IC50 [8]: > 10 µM

CNCCN1CCC(c2cc(CN(C)C(=O)c3cccc(Oc4ccccc4)c3)ccn2)CC1
% of growth rate [9]: -22.5%
